From US11707530B2, “Ligand capable of multivalently binding to glutamine transporter, and composition comprising same” (TOKYO INSTITUTE OF TECHNOLOGY, priority 2016, dated 2023)

Experiments:
ASCT2 [1] = target: T1, ASCT2 (Homo sapiens, UniProt Q15758); test: Antibody labeling of Bx-PC3 cells after incubation in Bzl-Ser solution; assay type: cell-based; parameters: endogenous in cells; host or cells: Bx-PC3 (BxPC-3) pancreatic cancer cells; conditions: 50 mM Bzl-Ser
T1 sequence (Q15758 1-541): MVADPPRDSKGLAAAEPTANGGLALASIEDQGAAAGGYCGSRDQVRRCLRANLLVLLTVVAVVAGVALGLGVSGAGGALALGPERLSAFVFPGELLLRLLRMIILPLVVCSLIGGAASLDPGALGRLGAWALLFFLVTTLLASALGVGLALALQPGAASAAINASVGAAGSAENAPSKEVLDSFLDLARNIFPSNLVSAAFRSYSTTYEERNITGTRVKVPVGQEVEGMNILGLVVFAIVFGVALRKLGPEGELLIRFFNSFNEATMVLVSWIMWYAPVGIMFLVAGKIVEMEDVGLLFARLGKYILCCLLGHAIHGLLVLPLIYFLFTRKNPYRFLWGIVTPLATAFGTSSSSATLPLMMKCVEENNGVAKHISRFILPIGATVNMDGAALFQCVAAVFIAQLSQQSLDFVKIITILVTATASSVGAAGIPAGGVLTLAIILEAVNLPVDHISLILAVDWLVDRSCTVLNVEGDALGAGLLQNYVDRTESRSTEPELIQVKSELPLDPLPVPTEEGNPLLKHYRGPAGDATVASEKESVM

ASCT2 [2] = target: T1, ASCT2; conditions: background statement; read-out: Km (Michaelis constant, affinity for ASCT2); cited from earlier work

| antibody labeling, cells incubated in Bzl-Ser solution vs PBS+10% FBS (ASCT2 [1]) | SMILES | Km (ASCT2 [2]) |
| --- | --- | --- |
| no difference observed | N[C@@H](COCc1ccccc1)C(=O)O [Bzl-Ser, O-benzyl-L-serine] |  |
|  | NC(=O)CC[C@H](N)C(=O)O [glutamine, L-glutamine] | 20 µM |
